The record followed here is patent publication US10351572B2, “Aryl hydrocarbon receptor antagonists and uses thereof” (Magenta Therapeutics Inc., priority 2017, dated 2019).

One may read the EC50 as the midpoint of the concentration-response curve.

The target in data set [1] is T1, aryl hydrocarbon receptor (Homo sapiens, UniProt P35869).
T1 construct: HepG2 cells transiently transfected with the pGudLuc6.1 plasmid were thawed and 25,000 cells were plated per well; endogenous in cells; host or cells: HepG2
T1 sequence (P35869 11-848): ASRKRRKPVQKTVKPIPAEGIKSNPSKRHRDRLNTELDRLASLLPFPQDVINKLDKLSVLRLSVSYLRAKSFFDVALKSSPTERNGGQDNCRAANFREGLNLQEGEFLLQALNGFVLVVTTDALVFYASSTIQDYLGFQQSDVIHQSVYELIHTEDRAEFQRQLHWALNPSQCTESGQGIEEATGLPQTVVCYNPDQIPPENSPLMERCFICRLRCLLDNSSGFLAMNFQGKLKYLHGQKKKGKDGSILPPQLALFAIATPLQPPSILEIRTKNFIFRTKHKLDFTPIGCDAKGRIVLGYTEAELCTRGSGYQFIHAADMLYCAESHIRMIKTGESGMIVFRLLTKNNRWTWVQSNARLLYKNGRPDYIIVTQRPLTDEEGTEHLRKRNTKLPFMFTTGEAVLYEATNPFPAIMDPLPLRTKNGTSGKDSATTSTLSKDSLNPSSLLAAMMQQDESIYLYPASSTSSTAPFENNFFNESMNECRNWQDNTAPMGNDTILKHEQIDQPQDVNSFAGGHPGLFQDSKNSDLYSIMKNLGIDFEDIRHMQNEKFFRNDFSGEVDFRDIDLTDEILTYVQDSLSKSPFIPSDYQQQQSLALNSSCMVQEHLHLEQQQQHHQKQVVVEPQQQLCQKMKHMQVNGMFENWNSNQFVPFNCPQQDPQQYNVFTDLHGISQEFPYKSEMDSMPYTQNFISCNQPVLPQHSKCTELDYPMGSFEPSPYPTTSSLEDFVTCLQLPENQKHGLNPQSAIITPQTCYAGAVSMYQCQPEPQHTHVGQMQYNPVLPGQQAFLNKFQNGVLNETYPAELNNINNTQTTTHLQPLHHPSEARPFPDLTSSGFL
In words: Aryl hydrocarbon receptor-driven luciferase reporter in transiently transfected HepG2 cells, Example 3. In kind it is cell-based. Conditions: absence or presence of VAF347 (80 nM); six hours after plating. The method, then:
To determine the ability of compounds (5) and (16) to inhibit the activity of the aryl hydrocarbon receptor and to induce the proliferation of hematopoietic stem cells, a series of HSC expansion experiments were conducted. In the first experiment, compounds (5) and (16) were assessed for their capacity to attenuate aryl hydrocarbon receptor signaling. To this end, HepG2 hepatocytes were transiently transfected with a luciferase reporter construct under the control of a promoter responsive to aryl hydrocarbon receptor signal transduction. The cells were plated at a density of 25,000 cells per well in a microtiter plate. The HepG2 cells were immediately treated with compound (5) or (16) in the absence (FIG. 1) or presence (FIG. 2) of the aryl hydrocarbon receptor agonist, VAF347 (80 nM). Luciferase activity was subsequently analyzed six hours after plating.

For data set [2], the system named is mononuclear peripheral blood cells enriched in CD34+ cells. As to the kind of experiment: Proliferation of hematopoietic stem cells, percentage of CD34+ cells after seven days, Example 3. The following applies: for potency of hematopoietic stem cell expansion compared with SR1: compared with potency reported for SR1; for hematopoietic stem cell growth (percentage of CD34+ cells): seven days following plating. In kind it is cell-based. The method, then:
To assess the ability of compounds (5) and (16) to induce the proliferation of hematopoietic stem cells, a population of mononuclear peripheral blood cells enriched in CD34+ cells were plated at a density of 2,350 cells per well (50 μL) in a microtiter plate in the presence of each compound. The percentage of CD34+ hematopoietic stem cells was assessed seven days following the initial plating. […] The compounds of formula (I) and (II) described herein can thus be used to expand hematopoietic stem cells ex vivo in order to obtain sufficient quantities of such cells for in vivo applications.

For data set [3], the system named is NSG mice. In words: Transplantation into NSG mice of human hematopoietic stem cells expanded ex vivo with AHR antagonist; blood chimerism and brain microglia engraftment, Example 5. In kind it is in vivo. The following applies: NSG mice transplanted with cord blood CD34+ cells expanded 10 days with 500 nM AHR antagonist. The method, then:
To investigate the ability of hematopoietic stem cells to differentiate into microglial cells and subsequently engraft in central nervous system tissue, such as the brain of a hematopoietic stem cell transplant recipient, a series of experiments were conducted in which human hematopoietic stem cells were first expanded ex vivo in the presence of an aryl hydrocarbon receptor antagonist (compound (16) or compound (24)) and were subsequently transplanted into NSG mice, in accordance with the scheme shown in FIG. 4. The frequency of human CD45+ cells in the peripheral blood of the mice was then determined, as well as the profile of microglial cells in the brain tissue using flow cytometry and immunohistochemistry techniques. […]
At the time of thaw, an equal number of cells to the starting cell cultures were injected into NSG mice, sublethally irradiated (200 cGy) 24 hours prior to injection. […] Peripheral blood was harvested by retro-orbital bleeding at approximately weeks 4 and 8 or by cardiac puncture at week 12 and chimerism was assessed by flow cytometry using antibodies against hCD45, mCD45, hCD33, hCD19, hCD3 and a viability dye. […]
Embedded brains were sectioned at approximately 5 microns and stained with Ku80 (brown) and Iba-1 (red) primary antibodies). Mouse brains were analyzed from each transplanted mouse and five levels were analyzed each. […]

Data set [4] addresses T2, AHR (Homo sapiens, UniProt P35869).
T2 construct: HepG2 cells transiently transfected with the pGudLuc6.1 plasmid were thawed and 25,000 cells were plated per well; endogenous in cells; host or cells: HepG2
T2 sequence (P35869 11-848): T1 sequence (P35869 11-848)
As to the kind of experiment: AHR antagonist assay, HepG2 cells transiently transfected with pGudLuc6.1 luciferase plasmid, Example 9. In kind it is cell-based. The following applies: luciferase activity 24 hours post-culture. How it is done:
Methods—HepG2 cells transiently transfected with the pGudLuc6.1 plasmid were thawed and 25,000 cells were plated per well and immediately treated the AHR agonist VAF347 (fixed at 40 nM) and/or the indicated AHR antagonists. Luciferase activity was measured 24 hours post-culture, corresponding to endogenous AHR antagonist activity (without VAF347, FIG. 14) or in the presence of VAF347 (FIG. 15). All synthesized compounds show equivalent AHR antagonist activity if not greater than SR1.

For data set [5], the system named is mobilized peripheral blood CD34+ cells. As to the kind of experiment: CD34+ hematopoietic stem/progenitor cell expansion (CD34+ frequency and number), Example 9. In kind it is cell-based. The following applies: dose response beginning at 10 pM, day 7, flow cytometry. How it is done:
To determine the activity of a scale-up batch of Compound (24), individual enantiomers, and two derivatives Compound (27) and Compound (28) were evaluated for i) the ability to expand CD34+ hematopoietic stem/progenitor cells and ii) AHR antagonist activity. The compounds were compared to control AHR antagonist SR1, an additional control AHR antagonist, and stored sample of Compound (24) CD34+ Frequency and Number
Methods—mobilized peripheral blood CD34+ cells were cultured in the presence of compound, in dose response beginning at 10 pM. CD34+ cell frequency and number was assessed at day 7 by flow cytometry. All synthesized compounds show equivalent expansion capabilities if not greater than SR1.
(In flow cytometry, cells or beads pass a laser one at a time.)

Where [6] appears, read: VAF347 fixed at 40 nM, read-out: AHR Antagonist Activity in the Presence of VAF347 EC50.
Where [7] appears, read: without VAF347, read-out: Endogenous AHR Antagonist Activity EC50.

Where “and” joins values, the source holds several entries; their conditions need not be identical. Equal entries are not always repeated. Where two headings read alike, the source gives them in different places.

For the compound `CCC(C)c1cnc2c(NCCc3c[nH]c4ccccc34)nc(-c3cncc(F)c3)cn12` (centres unmarked) [Compound (16)], the “suppression of aryl hydrocarbon receptor activity (luciferase)” value in data set [1] is “capable of suppressing aryl hydrocarbon receptor activity even in the presence of the activator VAF347”. Moreover, in data set [2], the “potency of hematopoietic stem cell expansion compared with SR1” value is “potency greater than that reported for StemRegeninl (SR1)” and the “hematopoietic stem cell growth (percentage of CD34+ cells)” value is “capable of potentiating hematopoietic stem cell growth in a dose-dependent manner”. Also, the “frequency of hCD45+ cells in peripheral blood” value in data set [3] was “increased frequency of hCD45+ cells in peripheral blood”. Further, the “engraftment of hCD45+CD11b+ microglial cells in the brain” value in data set [3] (brains at 3 months) was “increased engraftment of hCD45+CD11b+ microglial cells in the brain”.

For the compound `CCC(C)c1cnc2c(NCCc3c[nH]c4ccccc34)cc(-c3cncc(F)c3)cn12` (centres unmarked) [Compound (5)], the “suppression of aryl hydrocarbon receptor activity (luciferase)” value in data set [1] was “capable of suppressing aryl hydrocarbon receptor activity even in the presence of the activator VAF347”. Also, in data set [2], the “potency of hematopoietic stem cell expansion compared with SR1” value is given as “potency greater than that reported for StemRegeninl (SR1)” and the “hematopoietic stem cell growth (percentage of CD34+ cells)” value was “capable of potentiating hematopoietic stem cell growth in a dose-dependent manner”.

As for `CCOCCC(C)c1cnc2c(NCCc3c[nH]c4ccccc34)nc(-c3cncc(F)c3)cn12` (centres unmarked) [Compound (28), 3-(3-ethoxy-1-methylpropyl)-6-(5-fluoropyridin-3-yl)-N-[2-(1H-indol-3-yl)ethyl]imidazo[1,2-a]pyrazin-8-amine], the EC50 in data set [4] (setting [6]) worked out at 30 nM; in data set [4] (setting [7]) it was 2 nM; in data set [5] (168 h) it was 10 nM.

As to `CC(C)n1cnc2c(NCCc3ccc(O)cc3)nc(-c3csc4ccccc34)nc21` [SR1, reference compound], the EC50 came to 193 nM in data set [4] (setting [6]), 33 nM in data set [4] (setting [7]) and 112 nM in data set [5].

`COCCCC(C)c1cnc2c(NCCc3c[nH]c4ccccc34)nc(-c3cncc(F)c3)cn12` (centres unmarked) [Compound (27), 6-(5-fluoropyridin-3-yl)-N-[2-(1H-indol-3-yl)ethyl]-3-(4-methoxy-1-methylbutyl)imidazo[1,2-a]pyrazin-8-amine]: the EC50 in data set [4] (setting [6]) amounted to 9 nM; in data set [4] (setting [7]), 2 nM; in data set [5] (168 h), 8 nM.

In the case of `COCCC(C)c1cnc2c(NCCc3c[nH]c4ccccc34)nc(-c3cncc(F)c3)cn12` (single isomer, unassigned) [Compound (24) - Enantiomer Peak 1, 6-(5-fluoropyridin-3-yl)-N-[2-(1H-indol-3-yl)ethyl]-3-(3-methoxy-1-methylpropyl)imidazo[1,2-a]pyrazin-8-amine], the EC50 was determined as 12 nM in data set [4] (setting [6]), 1 nM in data set [4] (setting [7]) and 11 nM in data set [5].

For `COCCC(C)c1cnc2c(NCCc3c[nH]c4ccccc34)nc(-c3cncc(F)c3)cn12` (racemic) [Compound (24), 6-(5-fluoropyridin-3-yl)-N-[2-(1H-indol-3-yl)ethyl]-3-(3-methoxy-1-methylpropyl)imidazo[1,2-a]pyrazin-8-amine], the EC50 in data set [4] (setting [6]) is 13 nM and 11 nM; in data set [4] (setting [7]), 1 nM; in data set [5] (168 h), 7 nM.

With `COCCC(C)c1cnc2c(NCCc3c[nH]c4ccccc34)nc(-c3cncc(F)c3)cn12` (single isomer, unassigned) [Compound (24) - Enantiomer Peak 2, 6-(5-fluoropyridin-3-yl)-N-[2-(1H-indol-3-yl)ethyl]-3-(3-methoxy-1-methylpropyl)imidazo[1,2-a]pyrazin-8-amine], the EC50 in data set [4] (setting [6]) is 6 nM; in data set [4] (setting [7]), 0.4 nM; in data set [5], 4 nM.
